# Laboratory results taken from patent US20170369878A1, “MICRORNA COMBINATIONS FOR ANTI-CANCER THERAPEUTICS” (Massachusetts Institute of Technology, priority 2015, published 2017).
# Tested on: OVCAR8 cells and OVCAR8-ADR cells
# Assay: Docetaxel dose-response (MTT), resistant versus parental line
# Type: cell-based, human
# Details: docetaxel three days, FIG. 13
# Protocol: OVCAR8 cells (triangles) and OVCAR8-ADR (squares) cells (docetaxel-resistant derivative of OVCAR8) cells were treated with docetaxel at indicated doses for three days and subjected to the MTT assay. Cell viabilities were compared to the respective no drug controls. The OVCAR8-ADR cell line has a ˜3-fold higher IC50 than the parental OVCAR8 cell line. Data represent the mean±SD (n=3).
# For the MTT assay, 100 μl of MTT (3-(4,5-dimethylthiazol-2-yl)-2,5-diphenyltetrazolium bromide) solution (Sigma) was added to the cell cultures in 96-well plates and incubated at 37° C. with 5% CO2 for 2 hours. Viable cells convert the soluble MTT salt to insoluble blue formazan crystals. Formazan crystals formed were dissolved with 100 μl of solubilization buffer at 37° C. The absorbance of the solubilized formazan was measured at an optical density (OD) of 570 nm (along with the reference OD at 650 nm) using a Synergy H1 Microplate Reader (BioTek). For the trypan blue exclusion assay, cells were trypsinized and stained with 0.4% trypan blue dye solution (Sigma). Viable cells were counted in four different fields of a hemacytometer under microscopy.
smiles,measurement,value
CC(=O)O[C@@]12CO[C@@H]1C[C@H](O)[C@@]1(C)C(=O)[C@H](O)C3=C(C)[C@@H](OC(=O)[C@H](O)[C@@H](NC(=O)OC(C)(C)C)c4ccccc4)C[C@@](O)([C@@H](OC(=O)c4ccccc4)[C@H]21)C3(C)C [docetaxel],IC50 of OVCAR8-ADR relative to parental OVCAR8,~3 fold
